The numbers were not newly measured in patent US20240041741A1, “COSMETIC COMPOSITION OBTAINED BY MIXING TWO SILANE BLENDS” (Henkel AG & Co. KGaA, priority 2020, published 2024), which cites them from elsewhere.

For the data set the following is noted: for solubility in water: 25° C.

Turning to `O=S(=O)([O-])c1ccc(N=Nc2c(O)ccc3ccccc23)cc1.[Na+]` [Acid Orange 7, sodium salt of 4-[(2-hydroxy-1-naphthyl)azo]benzene sulphonate], the solubility in water result is “more than 7 g/L”.
For the compound `Nc1cc(S(=O)(=O)[O-])cc2cc(S(=O)(=O)[O-])c(N=Nc3ccccc3)c(O)c12.[Na+].[Na+]` [Acid Red 33, diantrium salt of 5-amino-4-hydroxy-3-(phenylazo)-naphthalene-2,7-disulphonate], the solubility in water was 2.5 mg/mL.
As for `O=C([O-])c1c(Cl)c(Cl)c(Cl)c(Cl)c1-c1c2c(Br)cc(=O)c(Br)c-2oc2c(Br)c(O)cc(Br)c12.O=C([O-])c1c(Cl)c(Cl)c(Cl)c(Cl)c1-c1c2c(Br)cc(=O)c(Br)c-2oc2c(Br)c(O)cc(Br)c12.[Na+].[Na+]` [Acid Red 92, disodium salt of 3,4,5,6-tetrachloro-2-(1,4,5,8-tetrabromo-6-hydroxy-3-oxoxanthen-9-yl)benzoic acid], the solubility in water result is “greater than 10 g/L”.
In the case of `O=C([O-])C1=NN(c2ccc(S(=O)(=O)[O-])cc2)C(=O)C1N=Nc1ccc(S(=O)(=O)[O-])cc1.[Na+].[Na+].[Na+]` (centres unmarked) [Acid Yellow 23, trisodium salt of 4,5-dihydro-5-oxo-1-(4-sulfophenyl)-4-((4-sulfophenyl)azo)-1H-pyrazole-3-carboxylic acid], the “solubility in water (in words)” value (at 25° C.) is “readily soluble in water”.
Turning to “mixture of the sodium salts of mono- and sisulfonic acids of 2-(2-quinolyl)-1H-indene-1,3(2H)-dione [Acid Yellow 3]”, the solubility in water was 20 mg/mL.
